Results from patent US7410975B2, “Small molecule toll-like receptor (TLR) antagonists” (Coley Pharmaceutical Group, Inc., priority 2003, dated 2008).
Read-outs that look alike come from different tables or passages of the source. Values belong to the compound of their own block, whether it stands above or below them.

How the values were obtained:
Format in all cases: cell-based
hTLR9 = molecular target: T1, hTLR9 (Homo sapiens, UniProt Q9NR96); test: hTLR9 antagonism IC50, hTLR9-NFkB-293 cells, luciferase readout, CpG-ODN 2006 (Examples 8 and 18, Tables 19 and 20); details: for inhibition of TLR9 signaling in vitro (in words): CpG-ODN 2006
T1 construct: expressed in transfected cells
T1 sequence (Q9NR96 26-1032): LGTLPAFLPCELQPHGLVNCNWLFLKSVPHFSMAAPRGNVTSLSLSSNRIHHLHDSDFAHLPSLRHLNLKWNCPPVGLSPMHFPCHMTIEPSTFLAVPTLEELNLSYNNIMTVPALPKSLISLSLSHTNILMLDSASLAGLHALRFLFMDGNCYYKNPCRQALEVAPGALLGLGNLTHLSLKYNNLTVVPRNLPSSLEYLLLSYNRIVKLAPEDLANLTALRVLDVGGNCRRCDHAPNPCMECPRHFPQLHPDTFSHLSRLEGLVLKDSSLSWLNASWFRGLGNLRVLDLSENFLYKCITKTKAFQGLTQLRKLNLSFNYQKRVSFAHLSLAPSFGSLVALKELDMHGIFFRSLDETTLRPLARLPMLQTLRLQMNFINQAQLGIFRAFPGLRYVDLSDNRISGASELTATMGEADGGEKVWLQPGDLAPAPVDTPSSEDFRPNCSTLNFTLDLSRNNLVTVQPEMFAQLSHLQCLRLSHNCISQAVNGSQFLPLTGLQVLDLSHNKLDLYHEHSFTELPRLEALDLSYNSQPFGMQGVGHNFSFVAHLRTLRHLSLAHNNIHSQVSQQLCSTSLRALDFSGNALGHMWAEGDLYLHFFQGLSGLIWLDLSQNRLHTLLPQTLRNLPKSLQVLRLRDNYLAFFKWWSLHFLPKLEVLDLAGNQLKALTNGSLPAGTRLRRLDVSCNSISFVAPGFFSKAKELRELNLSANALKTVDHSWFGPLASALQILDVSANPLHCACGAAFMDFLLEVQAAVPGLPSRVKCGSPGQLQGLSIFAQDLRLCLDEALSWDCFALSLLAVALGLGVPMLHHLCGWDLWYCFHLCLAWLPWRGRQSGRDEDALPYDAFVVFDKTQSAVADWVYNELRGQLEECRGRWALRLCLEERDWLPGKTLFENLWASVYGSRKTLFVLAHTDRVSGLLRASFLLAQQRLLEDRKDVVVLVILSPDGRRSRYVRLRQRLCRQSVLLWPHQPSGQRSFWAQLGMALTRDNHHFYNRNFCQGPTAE
Procedure: (§1) hTLR9-NFkB-293 cells were counted and seeded at 1.5×10^4 cells per well in 96-well cell culture plates one day before assaying and cultured at 37° C./5% CO2, as described in Example 7. The day of the assay, antagonist was added at varying concentrations starting at 50 μM with a 1/5 to 1/6 dilution for 7 steps. The cells were then stimulated with the EC50 dose of the TLR9 agonist, CpG-ODN 2006, and cultured for 16 h in a humidified incubator at 37° C. The culture supernatant was removed and the cells were treated with lysis buffer and stored at −80° C. before measuring luciferase activity as described in Example 7. […] Results shown in Table 19 under the heading hTLR9 are the IC50 dose (μM) for blockade of a CpG ODN-generated signal in hTLR9-NFkB-293 cells.
as §1, with “20” for “19”

human TLR9 (hTLR9) [1] = molecular target: T2, human TLR9 (hTLR9) (Homo sapiens, UniProt Q9NR96)
T2 construct: expressed in transfected cells
T2 sequence (Q9NR96 26-1032): T1 sequence (Q9NR96 26-1032)
Procedure: Stably co-transfecting the human TLR9 receptor (hTLR9) and an NF-κB promoter-driven luciferase gene into HEK-293 cells created the cell line hTLR9-NFkB-293. hTLR9-NFkB-293 cells were counted and seeded at 1.5×10^4 cells per well in 96-well cell culture plates one day before assaying and cultured at 37° C./5% CO2. The day of the assay, antagonist was added at 50 μM, 5.0 μM or 0.5 μM. The cells were then stimulated with the EC50 dose of the TLR9 agonist, CpG-ODN 2006, and cultured for 16 h in a humidified incubator at 37° C. The culture supernatant was removed and the cells were treated with lysis buffer and stored at −80° C. before measuring luciferase activity. The luciferase readout was measured according to manufacturer's instructions using a luciferase assay system available from Promega, USA. The antagonist dose listed in Table 18 is the minimum effective dose (μM) for blockade of the TLR9 agonist. As evident from the results presented in Table 18, the minimum effective dose (μM) for blockade of the TLR9 agonist was 0.5 μM or 5 μM for all of the compounds tested, as measured by this three-point assay.

human TLR9 (hTLR9) [2] = molecular target: T2, human TLR9 (hTLR9); test: Antagonist screen, hTLR9-NFκB-293 cells, 6× NF-κB-luciferase reporter, with EC50 of CpG ODN 2006; details: compound at 0.5, 5, 50 μg/ml; EC50 concentration of CpG ODN 2006; 16 h; NF-κB-luciferase
Procedure: Candidate small molecules for initial screening were obtained from a commercially available library of 880 off-patent small molecules selected for structural diversity and proven bioavailability in humans (Prestwick Chemical Library). […] Results were measured as fold induction over baseline luciferase activity measured in the absence of ODN 2006 and compared to fold induction over baseline in the presence of the EC50 concentration of ODN 2006 alone. […] Additional screening was performed in like manner using additional small molecules selected from another library or specifically prepared for this purpose.
The method is described in greater detail as follows. The cells for each individual cell clone (hTLR3-NFκB-293, hTLR7-NFκB-293, hTLR8-NFκB-293 and hTLR9-NFκB-293) were counted and seeded one day before the stimulation at 1.5×10^4 cells per well in 96-well cell culture plates. To become adherent the cells were incubated after seeding overnight at 37° C. in 5% CO2 humidified air.
The screen for each compound was performed at the same time for all of the receptors TLR3, TLR7, TLR8 and TLR9. Up to fifteen test compounds, each assayed in duplicate at each of three different final concentrations (0.5 μg/ml, 5 μg/ml, and 50 μg/ml), were used for 16 h cell stimulation on a single multiwell culture plate. A 4× final concentration master plate was created to prepare the different test compounds before they were added to the cells.
Controls were added as duplicates individually for each cell clone on the cell culture plate. Positive controls were used as follows (final concentrations): 50 μg/ml poly(I:C) for hTLR3-NFκB-293; 8 μM resiquimod (R848) for hTLR7-NFκB-293; 30 μM R848 for hTLR8-NFκB-293; and 2.5 μM CpG-ODN 2006 for hTLR9-NFκB-293. Media alone was used as negative control. After addition of controls and small molecules, the cell clones were additionally stimulated with the EC50 concentration of the appropriate receptor-specific ligand.
The mean value of wells H2 and H5 (each with cells and EC50 concentration of the appropriate receptor-specific ligand) divided by the mean of wells H3 and H6 (each with cells alone) yielded the baseline response (i.e., fold induction of luciferase activity) to EC50 concentration of the appropriate receptor-specific ligand.
After 16 h stimulation the supernatant was removed and the cells treated with lysis buffer and stored at −80° C. before measuring.
For each screen result a graphical documentation was performed.
The baseline result (measured with addition of the EC50 concentration of the receptor-specific ligand) for each cell culture plate was measured as described above. Antagonistic effects were measured by down regulation compared to the baseline. Antagonists were scored as follows: • 13: compounds for which there was clear down regulation at 0.5 μg/ml, 5 μg/ml, and 50 μg/ml; • 12: compounds for which there was clear down regulation at 5 μg/ml and 50 μg/ml; • 11: compounds for which there was clear down regulation only at 50 μg/ml; • —: compounds for which there was no clear down regulation even at 50 μg/ml. Agonists

[3] = hTLR9-NFkB-293 cells, EC50 dose of CpG-ODN 2006, 16 h, Table 20 diarylmethanes, read-out: hTLR9 (IC50 dose for blockade of a CpG ODN-generated signal)
[4] = three-point assay at 50, 5.0 or 0.5 μM, EC50 dose of CpG-ODN 2006, 16 h
[5] = hTLR9-NFkB-293 cells, EC50 dose of CpG-ODN 2006, 16 h, Table 19 quinazolines, read-out: hTLR9 (IC50 dose for blockade of a CpG ODN-generated signal)

Compound: CN1CCN(c2ccc(/C(=N\O)c3ccccc3)cc2)CC1 [CMZ 203-88]
inhibition of TLR9 signaling in vitro (in words) (hTLR9; hTLR9-NFkB-293 cells): found to inhibit TLR9 signaling
IC50 (hTLR9; [3]): 11.6 µM

Compound: Cc1cc(C)c2c(N)c3ccccc3nc2n1 [compound 1690, 2,4-Dimethyl-benzo[b][1,8]naphthyridin-5-ylamine]
antagonist dose (minimum effective dose for blockade of the TLR9 agonist) (human TLR9 (hTLR9) [1]; [4]): 0.5 µM

Compound: Cc1ccc2nc3c(c(N)c2c1)CCN3c1ccccc1 [1552(127), 6-Methyl-1-phenyl-2,3-dihydro-1H-pyrrolo[2,3-b]quinolin-4-ylamine]
antagonist dose (minimum effective dose for blockade of the TLR9 agonist) (human TLR9 (hTLR9) [1]; [4]): 0.5 µM

Compound: Cc1ccc2nc3nc4c(C)cccc4c(N)c3cc2c1 [compound 1595, 2,7-Dimethyl-dibenzo[b,g][1,8]naphthyridin-11-ylamine]
antagonist dose (minimum effective dose for blockade of the TLR9 agonist) (human TLR9 (hTLR9) [1]; [4]): 0.5 µM

Compound: CCOc1ccc2nc3cc(NCc4ccco4)ccc3c(N)c2c1 [compound 1674, 7-Ethoxy-N*3*-furan-2-ylmethyl-acridine-3,9-diamine]
antagonist dose (minimum effective dose for blockade of the TLR9 agonist) (human TLR9 (hTLR9) [1]; [4]): 5.0 µM

Compound: Cc1cc(C)c2c(N)c3cc(F)ccc3nc2n1 [compound 1727, 7-Fluoro-2,4-dimethyl-benzo[b][1,8]naphthyridin-5-ylamine]
antagonist dose (minimum effective dose for blockade of the TLR9 agonist) (human TLR9 (hTLR9) [1]; [4]): 0.5 µM

Compound: CC1(C)Cc2nc3ccccc3c(N)c2C(O)C1 (stereo not shown) [compound 1286, 9-Amino-3,3-dimethyl-1,2,3,4-tetrahydro-acridin-1-ol]
antagonist dose (minimum effective dose for blockade of the TLR9 agonist) (human TLR9 (hTLR9) [1]; [4]): 5.0 µM

Compound: CN(C)CCCN1c2ccccc2CCc2ccccc21.Cl [compound 72, Imipraminehydrochloride]
hTLR9 (inhibitory effect, antagonist score) (human TLR9 (hTLR9) [2]): 13 (compounds for which there was clear down regulation at 0.5 μg/ml, 5 μg/ml, and 50 μg/ml)

Compound: CN(C)CCNC(c1ccccc1)c1ccc(N2CCN(C)CC2)cc1 (stereo not shown) [CMZ 203-89]
inhibition of TLR9 signaling in vitro (in words) (hTLR9; hTLR9-NFkB-293 cells): found to inhibit TLR9 signaling
IC50 (hTLR9; [3]): 0.241 µM

IC50 (hTLR9; [5]): 29 µM
Compound: CN(C)CCOc1nc(-c2ccccc2)nc2ccccc12 [CMZ 203-45, Dimethyl-[2-(2-phenyl-quinazolin-4-yloxy)-ethyl]-amine]

Compound: CN(C)CCOC(c1ccccc1)c1ccc(N2CCN(C)CC2)cc1 (stereo not shown) [CMZ 203-85]
inhibition of TLR9 signaling in vitro (in words) (hTLR9; hTLR9-NFkB-293 cells): found to inhibit TLR9 signaling
IC50 (hTLR9; [3]): 0.372 µM

Compound: CC1(C)C=Cc2c(nc3ccccc3c2N)C1 [compound 1201, 3,3-Dimethyl-3,4-dihydro-acridin-9-ylamine]
antagonist dose (minimum effective dose for blockade of the TLR9 agonist) (human TLR9 (hTLR9) [1]; [4]): 0.5 µM

Compound: CN1CCN(c2ccc(C(O)c3ccccc3)cc2)CC1 (stereo not shown) [CMZ 203-84]
IC50 (hTLR9): 25.6 µM
inhibition of TLR9 signaling in vitro (in words) (hTLR9; hTLR9-NFkB-293 cells): found to inhibit TLR9 signaling

Compound: Nc1c2c(nc3ccccc13)CCC2 [compound 1061, 2,3-Dihydro-1H-cyclopenta[b]quinolin-9-ylamine]
antagonist dose (minimum effective dose for blockade of the TLR9 agonist) (human TLR9 (hTLR9) [1]; [4]): 5.0 µM

Compound: Cl.Nc1c2c(nc3ccccc13)CCCC2 [compound 329, 1,2,3,4-Tetrahydro-acridin-9-ylamine Tacrine hydrochloridehydrate, reference compound]
antagonist dose (minimum effective dose for blockade of the TLR9 agonist) (human TLR9 (hTLR9) [1]): 5.0 µM

Compound: CN1CCN(c2ccc(Cc3ccccc3)cc2)CC1 [CMZ 203-88-1]
IC50 (hTLR9): 12 µM
inhibition of TLR9 signaling in vitro (in words) (hTLR9; hTLR9-NFkB-293 cells): found to inhibit TLR9 signaling

Compound: CN(C)c1cc(N)c2ccccc2n1 [1553(128), N*2*,N*2*-Dimethyl-quinoline-2,4-diamine]
antagonist dose (minimum effective dose for blockade of the TLR9 agonist) (human TLR9 (hTLR9) [1]; [4]): 0.5 µM

IC50 (hTLR9; [5]): 5.43 µM
Compound: COc1cc2nc(N3CCN(c4ccccc4)CC3)nc(N)c2cc1OC [CMZ 203-90]

Compound: Cc1cc(C)c2c(N)c3cccc(C)c3nc2n1 [compound 1227, 2,4,9-Trimethyl-benzo[b][1,8]naphthyridin-5-ylamine]
antagonist dose (minimum effective dose for blockade of the TLR9 agonist) (human TLR9 (hTLR9) [1]; [4]): 5.0 µM

Compound: CN1CCN(c2ccc(-c3nc(NCCN4CCOCC4)c4ccccc4n3)cc2)CC1 [CMZ 203-87]
IC50 (hTLR9; [5]): 0.02 µM

Compound: Nc1c2c(nc3ccccc13)CCCCC2 [compound 936, 7,8,9,10-Tetrahydro-6H-cyclohepta[b]quinolin-11-ylamine]
antagonist dose (minimum effective dose for blockade of the TLR9 agonist) (human TLR9 (hTLR9) [1]; [4]): 0.5 µM

Compound: CN1CCN(c2ccc(C(c3ccccc3)N3CCN(C)CC3)cc2)CC1 (stereo not shown) [CMZ 203-91]
inhibition of TLR9 signaling in vitro (in words) (hTLR9; hTLR9-NFkB-293 cells): found to inhibit TLR9 signaling
IC50 (hTLR9; [3]): 3.95 µM
